Measured values published in patent US12264170B2, “Antimicrobial organosilanes” (TOPIKOS SCIENTIFIC, INC., priority 2019, dated 2025).
Converted amounts (≈) assume the structure as drawn.

Assays:
Format in all cases: cell-based
[1] = test system: Cladosporium herbarum ATCC MYA-4682; test: MIC microdilution assay; conditions: Cladosporium herbarum; C. herbarum ATCC MYA-4682; RPMI media; 25±2° C. 3 to 5 days; two values given; read-out: MIC
Experimental: Strain numbers starting with “ATCC” were acquired from the American Type Culture Collection (Manassas, VA), while strain numbers starting with “CDC” were acquired from the Centers for Disease Control and Prevention (Atlanta, GA). All strains were maintained as −80° C. frozen glycerol stocks. S. aureus and P. aeruginosa were grown overnight on Tryptic Soy Agar (TSA) plates at 35±2° C., ambient atmosphere, while S. pyogenes was grown overnight on TSA+5% defibrinated sheep blood at 35±2° C., 5% CO2. All fungal species (i.e. C. albicans, C. auris and C. herbarum) were grown on Sabouraud Dextrose Agar (SDA) plates. C. herbarum was grown at 25±2° C. for 5 to 7 days, while all other fungal strains were grown at 35±2° C. overnight.
Test articles Compound 2 (batch #2G13A0.368) and Compound 23 (batch #2G17A0.372) were received and stored at 4° C. The antibiotic Tobramycin and antifungal Amphotericin B were used as quality control (QC) compounds for the MIC assay. […]
All bacterial-strain MIC 96-well plates were incubated at 35±2° C. for 18 to 20 hours, while all Candida MIC 96-well plates were incubated at 35±2° C. for 24 to 48 hours. […] After incubation, the 96-well plates were examined visually and on a spectrophotometer at absorbance OD650. […]

[2] = test system: Pseudomonas aeruginosa CDC 0248; test: MIC microdilution assay (Example 32); conditions: Pseudomonas aeruginosa, CDC0248; P. aeruginosa CDC 0248; CAMHB; 35±2° C. 18 to 20 hours; two values given; read-out: MIC
Experimental: (§1) Strain IDs starting with “ATCC” were acquired from the American Type Culture Collection (Manassas, VA), strain IDs starting with “Eurofins” were acquired from Eurofins (Herndon, VA), while strain IDs starting with “CDC” were acquired from the Centers for Disease Control and Prevention (Atlanta, GA). All strains were maintained as −80° C. frozen glycerol stocks. S. aureus and P. aeruginosa were grown overnight on Tryptic Soy Agar (TSA) plates at 35±2° C., ambient atmosphere, while S. pyogenes was grown overnight on TSA+5% defibrinated sheep blood at 35±2° C., 5% CO2. C. jejuni was grown for 48 hours on TSA+5% defibrinated sheep blood at 35±2° C., in a microaerophilic environment generated by CampyGen sachet. All fungal species (i.e. C. albicans and C. auris) were grown overnight on Sabouraud Dextrose Agar (SDA) plates at 35±2° C., ambient atmosphere.
(§2) Test article Compound 1 (batch #7G30A9.203) was stored at 4° C. The antibiotic Tobramycin and antifungal Amphotericin B were used as quality control (QC) compounds for the MIC assay. Stock solutions of 3.2 mg/mL Tobramycin (Sigma-Aldrich, cat #T1783-500MG) and 3.2 mg/mL Amphotericin B (CP Lab Chemicals, cat #TOK-A007-1G) were prepared in sterile ultrapure water.
(§3) For bacteria strains, a few colonies of each strain were collected with a sterile swab and used to make a McFarland 0.5 standard solution (approximately 1×10^8 CFU/mL) in sterile PBS. The McFarland was then diluted 1:180 in Cation Adjusted Muller-Hinton Broth (CAMHB) for S. aureus and P. aeruginosa. S. pyogenes McFarland was diluted 1:180 in CAMHB+5% defibrinated sheep blood, while C. jejuni McFarland was diluted 1:180 in CAMHB+5% laked horse blood. 90 μL of this inoculum was combined with 10 μL of the 10× test article in a 96-well plate for a final concentration of 1×.
(§4) Except for C. jejuni, all bacterial-strain MIC 96-well plates were incubated at 35±2° C. for 18 to 20 hours, ambient atmosphere. C. jejuni was incubated at 35±2° C. for 48 hours, under microaerophilic condition. All Candida MIC 96-well plates were incubated at 35±2° C. for 24 to 48 hours, ambient atmosphere, until growth in control wells were observed. After incubation, the 96-well plates were examined visually and on a spectrophotometer at absorbance OD650. MIC is defined as the lowest concentration of a compound in which no visible growth is observed.

[3] = test system: Pseudomonas aeruginosa ATCC 27853; test: MIC microdilution assay (Example 32); conditions: Pseudomonas aeruginosa, ATCC27853; P. aeruginosa ATCC 27853 (quality control); CAMHB; 35±2° C. 18 to 20 hours; two values given; read-out: MIC
Experimental: as §1, §2, §3, §4

[4] = test system: Pseudomonas aeruginosa Eurofins 1674623; test: MIC microdilution assay (Example 32); conditions: Pseudomonas aeruginosa; P. aeruginosa Eurofins 1674623; CAMHB; 35±2° C. 18 to 20 hours; two values given; read-out: MIC
Experimental: as §1, §2, §3, §4

[5] = test system: Acinetobacter baumannii Eurofins 1674627; test: MIC microdilution assay (Example 32); conditions: Acinetobacter baumannii; A. baumannii Eurofins 1674627; 35±2° C. 18 to 20 hours; two values given; read-out: MIC
Experimental: as §1, §2, §3, §4

[6] = test system: Streptococcus pyogenes Eurofins 2065755; test: MIC microdilution assay (Example 32); conditions: Streptococcus pyogenes; S. pyogenes Eurofins 2065755; CAMHB+5% defibrinated sheep blood; 35±2° C. 18 to 20 hours; two values given; read-out: MIC
Experimental: as §1, §2, §3, §4

[7] = test system: Campylobacter jejuni CDC 0413; test: MIC microdilution assay (Example 32); conditions: Campylobacter jejuni, CDC0413; C. jejuni CDC 0413; CAMHB+5% laked horse blood; 35±2° C. 48 hours, microaerophilic; two values given; read-out: MIC
Experimental: as §1, §2, §3, §4

MIC [1]: > 32 µg/mL
MIC [2]: > 32 µg/mL
MIC [3]: 0.25 µg/mL (≈ 0.535 µM)
MIC [4]: > 32 µg/mL
MIC [5]: 1 µg/mL (≈ 2.14 µM)
MIC [6]: 16 µg/mL (≈ 34.2 µM)
MIC [7]: > 32 µg/mL
SMILES: NC[C@H]1O[C@H](O[C@H]2[C@H](O)[C@@H](O[C@H]3O[C@H](CO)[C@@H](O)[C@H](N)[C@H]3O)[C@H](N)C[C@@H]2N)[C@H](N)C[C@@H]1O [Tobramycin]
